What is called pEC50 is the EC50 on a negative log10 scale, so that one unit is a factor of ten. A low value points to a high EC50.

The target in one assay is T1, muscarinic M1 receptor (Homo sapiens, UniProt P11229).
T1 construct: expressed in transfected cells
T1 sequence (P11229 1-460): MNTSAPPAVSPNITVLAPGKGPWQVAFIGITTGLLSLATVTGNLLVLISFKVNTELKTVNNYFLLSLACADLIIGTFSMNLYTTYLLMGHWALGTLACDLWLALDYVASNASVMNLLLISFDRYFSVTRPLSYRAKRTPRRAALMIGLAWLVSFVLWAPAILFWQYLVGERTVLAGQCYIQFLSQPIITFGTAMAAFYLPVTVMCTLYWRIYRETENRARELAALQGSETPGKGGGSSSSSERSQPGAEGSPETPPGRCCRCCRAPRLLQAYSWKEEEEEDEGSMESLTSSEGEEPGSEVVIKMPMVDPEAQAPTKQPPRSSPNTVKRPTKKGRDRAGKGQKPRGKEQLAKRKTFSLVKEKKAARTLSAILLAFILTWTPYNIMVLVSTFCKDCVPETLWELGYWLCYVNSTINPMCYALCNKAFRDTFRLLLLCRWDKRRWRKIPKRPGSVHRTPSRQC
Description: R-SAT functional screen, M1. In kind it is cell-based. The note with it: for Emax: read-out: M1 eff (efficacy); for EC50: read-out: M1 pEC50 (converted). As to the method: (§1) Several compounds disclosed herein were evaluated for activity at muscarinic receptors using Receptor Selection and Amplification Technology (R-SAT) as described in U.S. Pat. No. 5,707,798, the disclosure of which is incorporated herein by reference in its entirety. The efficacy (eff) and potency (expressed as pEC50) of these compounds are presented in Table 1 at M1, M2, and M3 receptors.

The target of another assay is T2, muscarinic M2 receptor (Homo sapiens, UniProt P08172).
T2 construct: expressed in transfected cells
T2 sequence (P08172 1-466): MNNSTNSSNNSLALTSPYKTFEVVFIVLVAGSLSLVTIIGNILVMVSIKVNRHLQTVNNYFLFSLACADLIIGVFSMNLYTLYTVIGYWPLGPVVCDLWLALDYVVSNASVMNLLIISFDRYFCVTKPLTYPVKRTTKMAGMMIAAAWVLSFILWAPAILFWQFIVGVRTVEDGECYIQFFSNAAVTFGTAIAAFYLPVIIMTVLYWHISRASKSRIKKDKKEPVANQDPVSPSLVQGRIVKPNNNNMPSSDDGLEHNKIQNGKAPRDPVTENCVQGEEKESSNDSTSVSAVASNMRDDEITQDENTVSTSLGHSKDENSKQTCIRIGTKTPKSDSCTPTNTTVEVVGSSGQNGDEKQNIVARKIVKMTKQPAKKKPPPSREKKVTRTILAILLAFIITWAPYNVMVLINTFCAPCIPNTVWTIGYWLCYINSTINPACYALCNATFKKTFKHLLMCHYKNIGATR
Description: R-SAT functional screen, M2. The note with it: for Emax: read-out: M2 eff (efficacy); for EC50: read-out: M2 pEC50 (converted). In kind it is cell-based. As to the method:
as §1

Structures are written as SMILES. pEC50: −log10 of the molar value. Like-named read-outs stand apart in the source and are kept apart here.

With `CC1CN(C2=Nc3cc(Cl)ccc3Nc3ccccc32)CC(C)N1` (centres unmarked) [8-Chloro-11-(3,5-dimethyl-piperazin-1-yl)-5H-dibenzo[b,e][1,4]diazepine], at muscarinic M1 receptor (R-SAT), the Emax is 18%. Also, on muscarinic M2 receptor (R-SAT), the Emax came out at 97% and the EC50 was 2510 nM.
`Clc1ccc2c(c1)N=C(N1CCNC(c3ccccc3)C1)c1ccccc1N2` (centres unmarked) [8-Chloro-11-(3-phenyl-piperazin-1-yl)-5H-dibenzo[b,e][1,4]diazepine]: the figures for the Emax at muscarinic M1 receptor (R-SAT) and on muscarinic M2 receptor (R-SAT) were 5% and 23%, respectively.
For `Fc1ccc(CC2=Nc3cc(Cl)ccc3Nc3ccccc32)cc1` [8-Chloro-11-(4-fluorobenzyl)-5H-dibenzo[b,e][1,4]diazepine], in that order: 3% and 7%.
`Fc1ccc(C2=Nc3cc(Cl)ccc3Nc3ccccc32)cc1` [8-Chloro-11-(4-fluorophenyl)-5H-dibenzo[b,e][1,4]diazepine]: the Emax at muscarinic M1 receptor (R-SAT) was 13%; on muscarinic M2 receptor (R-SAT), 4%.
On to `CN1CCCN(C2=Nc3cc(Cl)ccc3Nc3ccccc32)CC1` [8-Chloro-11-(4-methyl-[1,4]diazepam-1-yl)-5H-dibenzo[b,e][1,4]diazepine], for which the Emax at muscarinic M1 receptor is 18%. Besides, on muscarinic M2 receptor, the pEC50 is 5.90 and the Emax worked out at 50%.
Take `CN1CCN(C2=Nc3cc(Cl)ccc3Oc3ccccc32)CC1` [8-Chloro-11-(4-methyl-piperazin-1-yl)-dibenzo[b,f][1,4]oxazepine]: on muscarinic M1 receptor (R-SAT), the Emax stood at 13%. For the same molecule, on muscarinic M2 receptor (R-SAT), the Emax turned out to be 46% and the EC50 is 1580 nM.
For the molecule `CCCCCCCCCc1ccc(C2=Nc3cc(Cl)ccc3Nc3ccccc32)cc1` [8-Chloro-11-(4-nonylphenyl)-5H-dibenzo[b,e][1,4]diazepine], the Emax at muscarinic M1 receptor (R-SAT) came out at 1%; at muscarinic M2 receptor (R-SAT), 8%.
For `Clc1ccc2c(c1)N=C(N1CCOCC1)c1ccccc1N2` [8-Chloro-11-(morpholin-4-yl)-5H-dibenzo[b,e][1,4]diazepine], in that order: 11% and 6%.
For `Clc1ccc2c(c1)N=C(N1CCNCC1)c1ccccc1O2` [8-Chloro-11-(piperazin-1-yl)-dibenzo[b,f][1,4]oxazepine], the results for the Emax at muscarinic M1 receptor (R-SAT) and at muscarinic M2 receptor (R-SAT) were 52% and 58%, respectively. Also, the EC50 was 100 nM at muscarinic M1 receptor (R-SAT) and 1000 nM at muscarinic M2 receptor (R-SAT).
Consider `Clc1ccc2c(c1)N=C(N1CCNCC1)c1ccccc1S2` [8-Chloro-11-(piperazin-1-yl)-dibenzo[b,f][1,4]thiazepine], for which the Emax on muscarinic M1 receptor (R-SAT) came to 11%. For the same molecule, on muscarinic M2 receptor (R-SAT), the Emax worked out at 52% and the EC50 was 1260 nM.
Regarding `Clc1ccc2c(c1)N=C(N1CCCCC1)c1ccccc1N2` [8-Chloro-11-(piperidin-1-yl)-5H-dibenzo[b,e][1,4]diazepine], at muscarinic M1 receptor (R-SAT), the Emax was 47% and the EC50 is 1580 nM. Further, the Emax at muscarinic M2 receptor (R-SAT) was found to be 9%.
Consider `Clc1ccc2c(c1)N=C(C1CCNCC1)c1ccccc1N2` [8-Chloro-11-(piperidin-4-yl)-5H-dibenzo[b,e][1,4]diazepine], for which, at muscarinic M1 receptor (R-SAT), the Emax came out at 57% and the EC50 was 631 nM. At muscarinic M2 receptor (R-SAT), the Emax is 31% and the EC50 was 2000 nM.
Take `Clc1ccc2c(c1)N=C(c1ccncc1)c1ccccc1N2` [8-Chloro-11-(pyridin-4-yl)-5H-dibenzo[b,e][1,4]diazepine]: the Emax at muscarinic M1 receptor (R-SAT) and at muscarinic M2 receptor (R-SAT) was 6% throughout.
Regarding `Clc1ccc2c(c1)N=C(N1CCCNCC1)c1ccccc1N2` [8-Chloro-11-[1,4]diazepam-1-yl-5H-dibenzo[b,e][1,4]diazepine], the pEC50 on muscarinic M1 receptor was 7.00; at muscarinic M2 receptor, 6.20. The Emax came to 37% on muscarinic M1 receptor and 82% on muscarinic M2 receptor.
`Fc1ccc2c(c1)N=C(N1CCNCC1)c1ccccc1N2` [8-Fluoro-11-(piperazin-1-yl)-5H-dibenzo[b,e][1,4]diazepine]: at muscarinic M1 receptor (R-SAT), the Emax turned out to be 32% and the EC50 is 200 nM. Moreover, on muscarinic M2 receptor (R-SAT), the Emax came to 95% and the EC50 was 2000 nM.
For the molecule `Fc1ccc2c(c1)N=C(N1CCCNCC1)c1ccccc1N2` [8-Fluoro-11-[1,4]diazepam-1-yl-5H-dibenzo[b,e][1,4]diazepine], on muscarinic M1 receptor, the pEC50 was 6.70 and the Emax was 25%. At muscarinic M2 receptor, the pEC50 was 6.60 and the Emax was found to be 67%.
Consider `Ic1ccc2c(c1)N=C(N1CCNCC1)c1ccccc1N2` [8-Iodo-11-(piperazin-1-yl)-5H-dibenzo[b,e][1,4]diazepine], for which, on muscarinic M1 receptor (R-SAT), the Emax came out at 75% and the EC50 was 63.1 nM. Also, on muscarinic M2 receptor (R-SAT), the Emax turned out to be 187% and the EC50 is 1000 nM.
For `Cc1ccc2c(c1)N=C(N1CCNCC1)c1ccccc1N2` [8-Methyl-11-(piperazin-1-yl)-5H-dibenzo[b,e][1,4]diazepine], on muscarinic M1 receptor (R-SAT), the Emax was 49% and the EC50 is 158 nM. Also, on muscarinic M2 receptor (R-SAT), the Emax was 98% and the EC50 is 1000 nM.
For the molecule `c1ccc2c(c1)Sc1cc3c(cc1N=C2N1CCNCC1)OCCO3` [11-(piperazin-1-yl)-2,3-dihydro-1,4-benzodioxino[6,7-b][1,4]benzothiazepin], the figures for the Emax at muscarinic M1 receptor (R-SAT) and at muscarinic M2 receptor (R-SAT) were 6% and 28%, respectively.
As to `N#Cc1ccc2c(c1)N=C(N1CCNCC1)c1ccccc1N2` [11-(piperazin-1-yl)-5H-dibenzo[b,e][1,4]diazepine-8-carbonitrile], on muscarinic M1 receptor (R-SAT), the Emax stood at 49% and the EC50 is 251 nM. On muscarinic M2 receptor (R-SAT), the Emax stood at 106% and the EC50 is 1000 nM.
For `c1ccc2c(c1)N=C(N1CCNCC1)c1ccccc1N2` [11-(piperazin-1-yl)-5H-dibenzo[b,e][1,4]diazepine], in that order: 38%, 794 nM, 70% and 2510 nM.
For `FC(F)(F)c1ccc2c(c1)N=C(N1CCNCC1)c1ccccc1N2` [11-(piperazin-1-yl)-8-trifluoromethyl-5H-dibenzo[b,e][1,4]diazepine], at muscarinic M1 receptor (R-SAT), the Emax turned out to be 53% and the EC50 was 316 nM. Besides, at muscarinic M2 receptor (R-SAT), the Emax turned out to be 131% and the EC50 is 3160 nM.
Regarding `c1ccc2c(c1)N=C(N1CCNCC1)c1ccccc1S2` [11-(piperazin-1-yl)-dibenzo[b,f][1,4]thiazepin], the Emax at muscarinic M1 receptor (R-SAT) turned out to be 4%. At muscarinic M2 receptor (R-SAT), the Emax worked out at 41% and the EC50 is 316 nM.
As to `c1ccc2c(c1)N=C(N1CCCNCC1)c1ccccc1N2` [11-[1,4]Diazepam-1-yl-5H-dibenzo[b,e][1,4]diazepine], the Emax at muscarinic M1 receptor came out at 18%; on muscarinic M2 receptor it was 25%.
`Clc1ccc2c(c1)N=C(NC[C@H]1CCCN1)c1ccccc1N2` [(8-Chloro-5H-dibenzo[b,e][1,4]diazepin-11-yl)-(R)-1-pyrrolidin-2-yl-methyl-amine]: the Emax on muscarinic M1 receptor (R-SAT) was determined as 4%; on muscarinic M2 receptor (R-SAT) it was 5%.
Regarding `Clc1ccc2c(c1)N=C(NC[C@@H]1CCCN1)c1ccccc1N2` [(8-Chloro-5H-dibenzo[b,e][1,4]diazepin-11-yl)-(S)-1-pyrrolidin-2-yl-methyl-amine], on muscarinic M1 receptor (R-SAT), the Emax stood at 77% and the EC50 was 501 nM. Further, the Emax on muscarinic M2 receptor (R-SAT) is 23%.
As for `Clc1ccc2c(c1)N=C(NC1CCNC1)c1ccccc1N2` (centres unmarked) [(8-Chloro-5H-dibenzo[b,e][1,4]diazepin-11-yl)-pyrrolidin-3-yl-amine], the Emax amounted to 10% at muscarinic M1 receptor (R-SAT) and 18% at muscarinic M2 receptor (R-SAT).
For the molecule `CN(C)CCNC1=Nc2ccccc2Nc2ccccc21` [N′-(5H-Dibenzo[b,e][1,4]diazepine-11-yl)-N,N-dimethyl-ethane-12-diamine], the Emax at muscarinic M1 receptor (R-SAT) stood at 10%; at muscarinic M2 receptor (R-SAT), 20%.
The corresponding values for `CCN(CC)CCNC1=Nc2cc(Cl)ccc2Nc2ccccc21` [N′-(8-Chloro-5H-dibenzo[b,e][1,4]diazepine-11-yl)-N,N-diethyl-ethane-1,2-diamine] are 6% and 9%.
With `CN(C)CCNC1=Nc2cc(Cl)ccc2Nc2ccccc21` [N′-(8-Chloro-5H-dibenzo[b,e][1,4]diazepine-11-yl)-N,N-dimethyl-ethane-1,2-diamine], the results for the Emax at muscarinic M1 receptor (R-SAT) and at muscarinic M2 receptor (R-SAT) were 4% and 11%, respectively.
Consider `CNCCNC1=Nc2cc(Cl)ccc2Nc2ccccc21` [N′-(8-Chloro-5H-dibenzo[b,e][1,4]diazepine-11-yl)-N-methyl-ethane-12-diamine], for which the Emax on muscarinic M1 receptor (R-SAT) turned out to be 5%; on muscarinic M2 receptor (R-SAT), 8%.

The values are drawn from patent publication US20090239840A1, “AMINO SUBSTITUTED DIARYL[a,d]CYCLOHEPTENE ANALOGS AS [sequence] AGONISTS AND METHODS OF TREATMENT OF NEUROPSYCHIATRIC DISORDERS” (ACADIA PHARMACEUTICALS, INC., priority 2003, published 2009).
